Experimental data as given in US20090252816A1, “Inhalable Gaseous Medicament Based On Xenon And Nitrous Oxide” (AIR LIQUIDE SANTE (INRTERNATIONAL), priority 2003, published 2009).

Columns and labels:
[1] = test system: sensitization to d-amphetamine; test: d-amphetamine sensitization protocol, locomotor activity in actimetry cages; assay type: in vivo, rat; details: for blocking of the sensitization process (locomotor activity in d-amphetamine test on D7): remainder oxygen, 3 h after each d-amphetamine injection D1-D3; for concentration necessary to block the sensitization process: d-amphetamine sensitization
Description: Male Sprague-Dawley rats weighing about 250 g were used in the experiments.
(§1) 15 groups of animals (of 7 or 8 animals each) were used, including 10 groups during the actual sensitization studies and 5 other groups during the histological studies of the neurons of the posterior and retrosplenial cingulate cortices.
The animals were injected intraperitoneally (i.p.) for 3 consecutive days from D1 to D3 with d-amphetamine (Amph; 1 mg/ml/kg) or, depending on the case, with a saline solution (1 ml/kg) for the control animals.
After each injection, the rats were immediately placed for 3 hours in a closed chamber, 100 liters in volume, flushed in dynamic regime with a constant flow rate of 5 l.min^−1, either with air (group 1: saline; group 2: Amph), or with 50% by volume of nitrous oxide (group 3: saline; group 4: Amph) or 75% (group 5: saline; group 6: Amph), or with 50% by volume of xenon (group 7: saline; group 8: Amph) or 75% (group 9: saline, group 10: Amph); the rest of the mixtures (remainder to 100%) being oxygen.
The locomotor activity of the animals of groups 1 to 10 was evaluated on D6, after an i.p. injection of a saline solution (1 ml/kg), and on D7 after an i.p. injection of d-amphetamine (1 mg/ml/kg). The locomotor activity of the animals in response to these injections was recorded using actimetry cages with photoelectric cells (Imétronic, Pessac. France).
The results obtained, given in the attached FIGS. 1 and 2, are expressed as the mean±standard error. The comparison of the groups was performed by means of nonparametric tests: Kruskall-Wallis analysis of variance, followed in the event of a significant result by the Mann-Whitney U test.

[2] = test system: dopamine release in the nucleus accumbens septi; test: dopamine release in slices of nucleus accumbens septi by differential pulse voltammetry; assay type: cell-based, rat
Description: In addition, the preparation of the slices of nucleus accumbens septi was performed as follows. The animals were decapitated under mild anesthesia with halothane and the brain was then rapidly removed. Frontal sections of 300 μm, corresponding to an anteriority of +0.70/1.20 mm (according to Bregma, Paxinos and Watson, 1998) were taken using a chopper (Mickie Laboratory Engineering Company, Gomshall, Surrey, UK). The brain slices were placed for recovery in a buffered saline solution with a temperature of 3-4° C. for at least 1 hour before use for neurochemical study.
The measurement of the dopamine release was performed by the technique of normal differential pulse voltammetry using a single-fiber carbon electrode 10 μm in diameter and 250 μm long (CFN10-250; World Precision Instruments, Aston, Stevenage, Hertfordshire, UK). The electrochemical treatment enabling this type of electrode to be made sensitive to dopamine consisted in applying a continuous current of −1.5 V into a phosphate-buffered saline solution for 20 seconds, followed by a triangular current of +2.6 V also for 20 seconds on the working electrode (Brazell et al., 1987). Under these conditions, the dopaminergic signal appears at a potential of +100 mV.
The rat brain slices were then placed in an organ tank and infused with artificial cerebrospinal fluid having the composition: NaCl 118 mM, MgCl2 1.18 mM, KCl 4.9 mM, NaH2PO4 1.25 mM, CaCl2 1.25 mM, NaHCO3 3.6 mM, d-glucose 10 mM, HEPES 30 mM, pH 7.4, the temperature of which was maintained at 34±1° C. using a temperature controller (Delta 4 Culture Dish Controller, Bioptechs, Butler, Pa., USA). The electrode was placed under microscopic control (microscope EFN 600, Nikon, Paris, France), 100 μm from the anterior commissure, using an optical micrometer incorporated into the microscope, and then fully descended into the nucleus accumbens septi, at an angle of 45°, and connected to the Biopulse polarograph set in normal differential pulse voltammetry mode with the following parameters: scanning potential −150+350 mV; scanning time 0.4 s, scanning amplitude 4 mV, for a scanning speed of 10 mV.s^−1, 40 ms measuring pulse; 70 ms measuring prepulse; 30 mV measuring amplitude.
The dopaminergic hyperstimulation was induced by adding d-amphetamine to the infusion liquid. Medical air, nitrous oxide or xenon was dissolved, to saturation, before use in the infusion liquid, the pH of which was readjusted to 7.4.

[3] = test system: N-methyl-D-aspartate glutamatergic receptors; details: in vitro; Franks et al. 1998, Jevtovic-Todorovic et al. 1998; cited from earlier work
[4] = test system: glutamatergic receptors of AMPA type; details: Yakamura and Harris, 2000; cited from earlier work
[5] = test system: posterior and retrosplenial cingulate cortices; test: histological study of neurons of the posterior and retrosplenial cingulate cortices after repeated gas exposure; assay type: in vivo, rat; details: for histological findings in posterior and retrosplenial cingulate cortices (neurotoxic effect): repeated exposure for 3 consecutive days
Description: as §1
In order to identify the possible neurotoxic potential of repeated exposure (3 hours per day […]) to nitrous oxide or to xenon on the posterior and retrosplenial cingulate cortices, 5 additional groups of animals were pretreated, according to a protocol identical to that defined above, by administration of a saline solution, and then exposed either to air (group 11) or to 50% or 75% nitrous oxide (groups 12 and 13) or to 50% or 75% xenon (groups 14 and 15).
To do this, after treatment, the animals were sacrificed on D8 by decapitation under general anesthesia with halothane, and the cranium was then immediately placed in a paraformaldehyde solution for one week. The brain was removed, coated with paraffin and sectioned into frontal slices of 4 μm mounted on gelatinized slides and stained with a hemalun-eosin-saffron solution. The posterior and retrosplenial cingulate cortices were analyzed using an optical microscope (×400).

[6] = test system: weaning from alcohol; details: Lichtigfeld and Gillman 1989; cited from earlier work
[7] = toxicity threshold of xenon stated for man; details: in man
[8] = gas at 50 vol % or 75 vol % (summary statement)

Row | Compound | locomotor activity in d-amphetamine test on D7, animals pretreated with d-amphetamine versus saline ([1]; d-amphetamine 1 mg/ml/kg i.p. D1-D3, air) | dopamine signal relative to the measured basal signal ([2]; d-amphetamine at 10^-5 M in infusion liquid) | antagonist affinity for NMDA receptors [3] | effect on glutamatergic receptors of AMPA type [4] | histological findings in posterior and retrosplenial cingulate cortices (neurotoxic effect) ([5]; gas at 75 vol %) | locomotor activity in response to the saline test on D6 (long-term sedative effect) ([1]; gas at 50 vol % or 75 vol %, rats) | blocking of the sensitization process (locomotor activity in d-amphetamine test on D7) ([1]; gas at 50 vol %, rats) | blocking of the sensitization process (locomotor activity in d-amphetamine test on D7) ([1]; gas at 75 vol %, rats) | concentration necessary to block the sensitization process ([1]; rats) [vol %] | gas effect on acute d-amphetamine test at D7 in rats pretreated with saline solution ([1]; saline-pretreated rats, nitrous oxide exposure D1-D3) | increase in dopamine release induced with d-amphetamine [2, 8] | increase in dopamine release induced with d-amphetamine ([2]; gas at 75% by volume in the infusion liquid, d-amphetamine 10^-5 M) | effect on weaning from alcohol [6] | toxicity threshold [7] | histological findings in posterior and retrosplenial cingulate cortices (neurotoxic effect) ([5]; gas at 50 vol %) | toxicity threshold ([5]; in rats) | response to d-amphetamine on D7 in animals pretreated with saline solution ([1]; gas at 75 vol %, versus air or xenon at 50 vol %) | increase in dopamine release induced with d-amphetamine ([2]; gas at 50% by volume in the infusion liquid, d-amphetamine 10^-5 M)
1 | C[C@H](N)Cc1ccccc1.C[C@H](N)Cc1ccccc1.O=S(=O)(O)O [d-amphetamine, d-amphetamine sulfate] | significantly higher | significant increase | – | – | – | – | – | – | – | – | – | – | – | – | – | – | – | –
2 | [N-]=[N+]=O [nitrous oxide] | – | – | low affinity | no effect | No similar effect | no significant difference | partial blocking | significant blocking | 75 | no “gas” effect | block the increase | significantly reduced | slightly better than the placebo effect | – | – | – | – | –
3 | [Xe] [xenon] | – | – | low affinity | no effect | generalized cytoplasmic clarification | – | blocking of the sensitization | blocking of the sensitization | 50 | – | block the increase | – | – | about 60% | No similar effect | about 75% | significant increase | significantly reduced
